Tested on: male Wister strain rats
Assay: Test Example 1: change in blood pressure of rats on presentation of aromatic compositions to the nostril
Type: in vivo
Settings: rat, aroma presented to vicinity of nostril for 10 minutes, 30 minutes after the presentation, FIG. 1
Procedure: Focusing attention on aromatic components contained in a Melissa essential oil, one of plant essential oils, various aromatic compositions were presented to male Wister strain rats, and evaluation of change in caudal arterial pressure before and after the presentation was conducted. The test was carried out under conditions that avoid stress which may be placed on the rat as less as possible, and thus can be kept calm in an environment of the measurement of the blood pressure.
Male Wister strain rats of 7-week old were purchased, and after one week acclimatization period, the blood pressure was measured on 8-week old. All experimental animals were kept under a 12:12 light-dark cycle (light period: from 8 AM to 8 PM), with allowing for free access to chow and drinking water.
Training for adaptation of the 7-week old rat to a holder for the blood pressure measurement was carried out for one week. […]
For three days after completing the training, change in the blood pressure was measured upon presentation of the aromatic composition to the rats. […] The blood pressures before and after 30 minutes from presenting the aromatic compositions were measured, and the changes of the blood pressures were compared. […]

Question: With `CC(C)=CCCC(C)=CC=O` [citral] as the molecule, how does the “change in diastolic blood pressure (caudal arterial pressure) after presentation compared with the values before the presentation” value read?
Answer: lowering of the blood pressure

Question: With `C=CC(C)(O)CCC=C(C)C` (centres unmarked) [linalool] as the molecule, how does the “change in diastolic blood pressure (caudal arterial pressure) after presentation compared with the values before the presentation” value read?
Answer: lowering of the blood pressure
